Assay: Effect of buffer concentration on osmolality
Format: physicochemical
Procedure: The effect of buffer concentration on osmolality was measured for HEPES and potassium phosphate buffer systems and plotted in FIG. 8A. With HEPES, a higher buffer concentration can be achieved with a lower osmolality (slope 1.37 mOsmol/Kg per mMoles/L HEPES), as compared to phosphate buffers (slope 2.21 mOsmol/Kg per mMoles/L phosphate).

With `O=S(=O)(O)CCN1CCN(CCO)CC1` [HEPES, 4-(2-hydroxyethyl)-1-piperazineethanesulfonic acid] the “slope of osmolality against buffer concentration” value was 1.37 mOsmol/Kg per mMoles/L.

With phosphate the “slope of osmolality against buffer concentration” value was 2.21 mOsmol/Kg per mMoles/L.

From patent US20250281512A1, “BUFFERING AGENT-CONTAINING COMPOSITIONS AND METHODS OF USING SAME” (KNOW BIO, LLC, priority 2022, published 2025)
